Source: US9884065B2, “Inhibiting activity of senescent cells using a glucocorticoid” (Buck Institute for Research on Aging, priority 2011, dated 2018)

Tests used:
[1] = tested on: K-Ras induced lung tumors; experiment: K-Ras mediated lung tumorigenesis in INK-ATTAC:K-RasLA1 mice; format: in vivo, mouse; parameters: dose or concentration left out as unconfirmed; conditions: INK-ATTAC3:K-RasLA1 and INK-ATTAC5:K-RasLA1 mice, from three weeks of age; 21 days after treatment
Text: Briefly, INK-ATTAC (p16^Ink4a apoptosis through targeted activation of caspase) transgenic mice have an FK506-binding protein (FKBP)-caspase 8 (Casp8) fusion polypeptide under the control of the p16^Ink4a promoter (see FIG. 10 providing a vector sequence for the transgene and FIG. 11 providing sequences for components of the transgene including the promoter sequence). In the presence of AP20187, a synthetic drug that induces dimerization of a membrane bound myristoylated FKBP-Casp8 fusion protein, senescent cells specifically expressing the FKBP-Casp8 fusion protein via the p16^Ink4a promoter undergo programmed cell death (apoptosis) (see, e.g., Baker, Nature, supra, FIG. 1 therein). Two founder lines (INK-ATTAC^3 and INK-ATTAC^5) were each bred with the K-rasLA1 tumor model. […]
Two INK-ATTAC:K-RasLA1 were produced (one for INK-ATTAC line 3 and one for line 5). […] Twenty one days after treatment, the mice were sacrificed and tumor multiplicity in lungs was measured. […] In addition, metastasis and overall survival will be monitored after tumor induction in the presence or absence of p16-positive cells.

IL-6 = experiment: Initial drug screen (Prestwick Chemical Library), IL-6 ELISA of medium; format: cell-based, human; conditions: 2.5 μM, 48 hours, HCA2 fibroblasts, 0.2% serum
Protocol: The initial drug screen was performed in a 96-well format using automated liquid handling with a Biomek FX (Beckman Coulter, CA). Senescent cells were plated 24 hours after X-irradiation at 7,500 cells per well in 96-well plates. Six days after plating the senescent cells, the pre-senescent cells were plated at 7,500 cells per well in 96-well plates. Twenty-four hours after pre-senescent plating, both pre-senescent and senescent cells were washed and incubated in low (0.2%) serum for 48 hours to arrest cell proliferation of the pre-senescent cells. […] Forty-eight hours after compound addition, the medium in each well was removed and frozen for assay by ELISA to quantitate the levels of IL-6. The cells, which remained in the wells after the medium was removed, were lysed and ATP levels were measured (ATPlite 1-step assay, Perkin Elmer, MA) to exclude compounds that lowered IL-6 through toxicity (cell death). Experimental wells in each plate were normalized to plate mean or same-plate DMSO controls for the ELISA and ATP assays, respectively.
To identify small molecules that may be potential SASP modulators, a screening strategy that entailed administering compounds to parallel 96-well plates containing human fibroblasts (strain HCA2) that were either quiescent or senescent was developed. […] After 48 hours, the medium from each well was removed, and the cells were lysed. […] Cell lysates were assayed for ATP as a surrogate for cell number.

HCA2 human fibroblasts = conditions: 2.5 μM, 48 hours
Protocol: The initial drug screen was performed in a 96-well format using automated liquid handling with a Biomek FX (Beckman Coulter, CA). Senescent cells were plated 24 hours after X-irradiation at 7,500 cells per well in 96-well plates. Six days after plating the senescent cells, the pre-senescent cells were plated at 7,500 cells per well in 96-well plates. Twenty-four hours after pre-senescent plating, both pre-senescent and senescent cells were washed and incubated in low (0.2%) serum for 48 hours to arrest cell proliferation of the pre-senescent cells. Drugs from the Prestwick Chemical Library, which contains 1120 bio-available compounds in DMSO, were given to the cells at 2.5 μM in media containing 0.2% serum. Forty-eight hours after compound addition, the medium in each well was removed and frozen for assay by ELISA to quantitate the levels of IL-6. The cells, which remained in the wells after the medium was removed, were lysed and ATP levels were measured (ATPlite 1-step assay, Perkin Elmer, MA) to exclude compounds that lowered IL-6 through toxicity (cell death). Experimental wells in each plate were normalized to plate mean or same-plate DMSO controls for the ELISA and ATP assays, respectively.
To identify small molecules that may be potential SASP modulators, a screening strategy that entailed administering compounds to parallel 96-well plates containing human fibroblasts (strain HCA2) that were either quiescent or senescent was developed. The compounds tested comprised the Prestwick Chemical Library, a collection of approximately 1,120 Federal Drug Administration-approved drugs. The compounds were added to duplicate wells at a single concentration (2.5 μM). After 48 hours, the medium from each well was removed, and the cells were lysed. […] Cell lysates were assayed for ATP as a surrogate for cell number.

SASP = experiment: Multiplex ELISA of conditioned media from irradiated IMR90 fibroblasts (50 cytokines and growth factors); format: cell-based, human; conditions: 10 μM apigenin immediately after irradiation, analyzed 6 days later; less than 2 fold not considered significant
Protocol: To determine whether or to what extent apigenin suppressed the entire SASP, multiplex ELISA was used to interrogate the relative secretion of 50 cytokines and growth factors. IMR90 fibroblasts were treated with 10 μM apigenin or DMSO immediately after irradiation and analyzed 6 days later. Cells were washed and incubated in serum-free media without apigenin to generate conditioned media. Conditioned media from […], apigenin- or DMSO-treated irradiated IMR90 cells and control (mock-irradiated, DMSO-treated) cells were analyzed by ELISA for various SASP factors (FIG. 19).

Compound	tumor multiplicity in lungs (tumor numbers) [1]	IL-6 secretion (ELISA) (IL-6)	ATP levels (HCA2 human fibroblasts)	secretion of SASP factors (fold difference over control) (SASP)
CC[C@H](C(=O)N1CCCC[C@H]1C(=O)O[C@H](CCc1ccc(OC)c(OC)c1)c1cccc(OCC(=O)NCC(CNC(=O)COc2cccc([C@@H](CCc3ccc(OC)c(OC)c3)OC(=O)[C@@H]3CCCCN3C(=O)[C@@H](CC)c3cc(OC)c(OC)c(OC)c3)c2)CN(C)C)c1)c1cc(OC)c(OC)c(OC)c1 [AP20187]	significantly reduced			
O=c1cc(-c2ccc(O)cc2)oc2cc(O)cc(O)c12 [apigenin, 4′,5,7-trihydroxyflavone]		capable of suppressing IL-6 secretion	without altering ATP levels	suppressed the secretion of several pro-inflammatory cytokines and chemokines, including, for example, TGFA, MCP3, LIF, IFNβ, IL-6, GROA, and IL-2
